Results published in patent publication US20060240463A1, “Markers associated with the therapeutic efficacy of glatiramer acetate” (Rappaport Family Institute for Research in the Medical …, priority 2005, published 2006).

Legend:
[1] = test system: MHC class II molecules on murine and human antigen-presenting cells; conditions: cited from earlier work
[2] = test system: RR-MS patients; test: European/Canadian MRI trial, GA-treated PGx cohort: response by SNP genotype ("T1 lesion-free" response definition); format: in vivo, human
Source text: (§1) Two clinical trials, the European/Canadian trial and U.S. pivotal trial, were used to identify associations between GA responsiveness and SNPs in RR-MS patients. Caucasian patients, that had participated in one of two previously completed randomized, double blind, placebo-controlled, multi-centric clinical trials, were solicited to partake in the present study. In both clinical trials, patients were required to have a diagnosis of definite MS (Poser C M, et al. Ann Neurol., 13(3):227-31 (1983) and a relapsing-remitting course (Lublin F D and Reingold S C, Neurology 46(4):907-11 (1996). Ultimately, 73 and 101 DNA samples of Caucasian patients from the U.S. pivotal and European/Canadian MRI trials, respectively, were analyzed. GA dosage was consistent for both trials (i.e. daily 20-mg subcutaneous injection). Table I compares multiple variables between the general cohort study and the PGx cohort study for the European/Canadian trial and the U.S. pivotal trial.
(§2) Subjects were selected from two previously completed randomized, double blind, placebo-controlled, multi-centric clinical trials. In both clinical trials, patients were required to have a diagnosis of definite MS (Poser C M, et al. New diagnostic criteria for multiple sclerosis: guidelines for research protocols. Ann Neurol., (1983);13(3):227-31) and a relapsing-remitting course (Lublin F D, Reingold S C. Defining the clinical course of multiple sclerosis: results of an international survey. National Multiple Sclerosis Society (USA) Advisory Committee on Clinical Trials of New Agents in Multiple Sclerosis. Neurology, (1996);46(4):907-11) 85 (33.9%) out of 251 patients from the U.S. pivotal trial (Johnson K P, et al. Copolymer 1 reduces relapse rate and improves disability in relapsing-remitting multiple sclerosis: results of a phase 111 multicenter, double-blind placebo-controlled trial. The Copolymer 1 Multiple Sclerosis Study Group. Neurology, (1995);45(7):1268-76; Johnson K P, et al. Extended use of glatiramer acetate (COPAXONE) is well tolerated and maintains its clinical effect on multiple sclerosis relapse rate and degree of disability. Copolymer 1 Multiple Sclerosis Study Group. Neurology, (1998);50(3):701-8), and 108 (45.2%) out of 239 patients from the European/Canadian MRI trial (Comi G, Filippi M, Wolinsky J S. European/Canadian multicenter, double-blind, randomized, placebo-controlled study of the effects of glatiramer acetate on magnetic resonance imaging—measured disease activity and burden in patients with relapsing multiple sclerosis. European/Canadian glatiramer acetate Study Group. Ann Neurol., (2001);49(3):290-7) (including patients from Holland, Italy, Belgium, UK, Canada) consented to participate in this study. The same dosage of GA (i.e. daily 20-mg subcutaneous injection) was used in both trials. Although in the original trials patients were equally assigned to either GA- or placebo-treatment, the ratios in the current PGx study were 37:36 and 4952, for the U.S. pivotal and the European/Canadian MRI trials, respectively. Table I indicates various variables between the General Cohort study and the PGx Cohort study for both the European/Canadian trial and the U.S. pivotal trial.
(§3) The primary endpoint in the European/Canadian MRI trial was the accumulated number of TI-enhancing lesions during 9 months, and an additional inclusion criterion was used calling for the presence of at least one TI-enhancing lesion on MRI screening. The primary end-point for the U.S. pivotal trial was the annualized relapse-rate after two years of treatment.
(§4) The procedure used stringent definitions for response to GA therapy. […] For validation purposes response was also treated as a continuous variable where number of new T1-enhancing lesions within the third trimester was analyzed as the […] variable. […]

[3] = test system: RR-MS patients; test: European/Canadian MRI trial, GA-treated PGx cohort: response by SNP genotype ("combined" response definition); format: in vivo, human
Source text: as §1, §2, §3, §4

[4] = test system: RR-MS; conditions: in vivo; cited from earlier work
[5] = test system: murine models resembling inflammatory bowel disease; conditions: severe ulceration and inflammation; cited from earlier work
[6] = test system: skin graft, thyroid grafts; conditions: across minor and major histocompatibility barriers; cited from earlier work
[7] = test system: dendritic cells; conditions: through modulation of dendritic cells; cited from earlier work
[8] = TCRB_rs71878, GEN = 0, GA(N = 43)
[9] = TCRB_rs71878, GEN = 1, GA(N = 43)
[10] = TCRB_rs71878, GEN = 2, GA(N = 43)
[11] = CD80_rs527004, GEN = 0, GA(N = 41)
[12] = CD80_rs527004, GEN = 1, GA(N = 41)
[13] = CD86_rs1129055, GEN = 0, GA(N-35)
[14] = CD86_rs1129055, GEN = 1, GA(N-35)
[15] = CD86_rs1129055, GEN = 2, GA(N-35)
[16] = CD86_rs2001791, GEN = 0, GA(N = 48)
[17] = CD86_rs2001791, GEN = 1, GA(N = 48)
[18] = CD86_rs2001791, GEN = 2, GA(N = 48)
[19] = CD95_rs9827641, GEN = 0, GA(N-47)
[20] = CD95_rs9827641, GEN = 1, GA(N-47)
[21] = CTSS_rs1415148, GEN = 0, GA(N = 47)
[22] = CTSS_rs1415148, GEN = 1, GA(N = 47)
[23] = CTSS_rs1415148, GEN = 2, GA(N = 47)
[24] = CTSS_rs2275235, GEN = 0, GA(N = 43)
[25] = CTSS_rs2275235, GEN = 1, GA(N = 43)
[26] = CTSS_rs2275235, GEN = 2, GA(N = 43)
[27] = MBP_rs470929, GEN = 0, GA(N-32)
[28] = MBP_rs470929, GEN = 1, GA(N-32)
[29] = MBP_rs470929, GEN = 2, GA(N-32)

glatiramer acetate [GA]
binding to MHC class II molecules [1]: very rapid, high, and efficient binding | percentage of responders out of carriers of genotype [2, 8]: 62.07% | responders/carriers of genotype [2, 8]: 18/29 | percentage of responders out of carriers of genotype [2, 9]: (90%) | responders/carriers of genotype [2, 9]: 9/10 | percentage of responders out of carriers of genotype [2, 10]: (100%) | responders/carriers of genotype [2, 10]: 4/4 | percentage of responders out of carriers of genotype [3, 11]: (35.29%) | responders/carriers of genotype [3, 11]: 12/34 | percentage of responders out of carriers of genotype [3, 12]: 85.71% | responders/carriers of genotype [3, 12]: 6/7 | responders/carriers of genotype ([3]; CD80_rs527004, GEN = 2, GA(N = 41)): 0/0 | percentage of responders out of carriers of genotype [3, 13]: (16.67%) | responders/carriers of genotype [3, 13]: 3/18 | percentage of responders out of carriers of genotype [3, 14]: (60%) | responders/carriers of genotype [3, 14]: 9/15 | percentage of responders out of carriers of genotype [3, 15]: (50%) | responders/carriers of genotype [3, 15]: 1/2 | percentage of responders out of carriers of genotype [3, 16]: (28.21%) | responders/carriers of genotype [3, 16]: 11/39 | percentage of responders out of carriers of genotype [3, 17]: 62.5%) | responders/carriers of genotype [3, 17]: 5/8 | percentage of responders out of carriers of genotype [3, 18]: (100%) | responders/carriers of genotype [3, 18]: 1/1 | percentage of responders out of carriers of genotype [3, 19]: (22.53%) | responders/carriers of genotype [3, 19]: 5/24 | percentage of responders out of carriers of genotype [3, 20]: (31.25%) | responders/carriers of genotype [3, 20]: 5/16 | percentage of responders out of carriers of genotype ([3]; CD95_rs9827641, GEN = 2, GA(N-47)): ((71.43%)^ | percentage of responders out of carriers of genotype [3, 21]: (15%) | responders/carriers of genotype [3, 21]: 3/20 | percentage of responders out of carriers of genotype [3, 22]: (42.86%) | responders/carriers of genotype [3, 22]: 9/21 | percentage of responders out of carriers of genotype [3, 23]: (83.33%) | responders/carriers of genotype [3, 23]: 5/6 | percentage of responders out of carriers of genotype [3, 24]: (19.35%) | responders/carriers of genotype [3, 24]: 6/31 | percentage of responders out of carriers of genotype [3, 25]: (66.67%) | responders/carriers of genotype [3, 25]: 4/6 | percentage of responders out of carriers of genotype [3, 26]: (83.33%) | responders/carriers of genotype [3, 26]: 5/6 | percentage of responders out of carriers of genotype [3, 27]: (18.18%) | responders/carriers of genotype [3, 27]: 2/11 | percentage of responders out of carriers of genotype [3, 28]: (43.75%) | responders/carriers of genotype [3, 28]: 7/16 | percentage of responders out of carriers of genotype [3, 29]: (100%) | responders/carriers of genotype [3, 29]: 5/5 | relapse rate and CNS activity [4]: effectiveness in reducing relapse rate and CNS activity | macroscopic colonic damage [5]: reduce macroscopic colonic damage | amelioration of graft rejection [6]: prolongation of skin graft survival and inhibition of functional deterioration of thyroid grafts | Th2 cell development and IL-10 production [7]: promotes T helper 2 (Th2) cell development and increased IL-10 production
